# Like-named read-outs stand apart in the source and are kept apart here.
# Legend:
# human p38 kinase alpha = molecular target: T1, human p38 kinase alpha (Homo sapiens, UniProt Q16539); test: p38 kinase in vitro assay, phosphorylation of biotinylated PHAS-I with 32P-ATP; format: biochemical; conditions: in vitro P38-alpha kinase inhibition; read-out: P38 alpha kinase IC50
# T1 construct: GST (N, cleaved yes); made in house; host or cells: E. coli DH10B
# [1] = tested on: TNF-α, U937 human histiocytic lymphoma cell line; test: LPS stimulation of TNF production by U937 cells; format: cell-based; conditions: for inhibition at 1 µM: U-937, @ 1.0 uM, read-out: U937 Cell % inhib @ conc.; for IC50: read-out: U937 Cell IC50; for U937 Cell % inhib @ conc. (uM): @ 1.0 uM
# Experimental: Maintenance and Differentiation of the U937 Human Histiocytic Lymphoma Cell Line:
# Fifty million cells in 100 ml media were induced to terminal monocytic differentiation by 24 hour incubation with 20 ng/ml phorbol 12-myristate 13-acetate (Sigma). The cells were washed by centrifugation (200×g for 5 min) and resuspended in 100 ml fresh medium. After 24-48 hours, the cells were harvested, centrifuged, and resuspended in culture medium at 2 million cells/ml.
# LPS Stimulation of TNF Production by U937 Cells:
# Compounds were prepared as 10 mM stock solutions in DMSO and diluted in culture medium to yield a final DMSO concentration of 0.1% in the cell assay. LPS (E coli, 100 ng/ml final concentration) was then added at a volume of 0.02 ml. After 4 hour incubation at 37° C., the amount of TNF-α released in the culture medium was quantitated by ELISA. Inhibitory potency is expressed as IC50 (μM).
# In vitro whole cell assay for measuring the ability of the compounds to inhibit TNF production in human U937 cells stimulated with LPS are shown in the column identified as: • “U937 Cell IC50, uM or % inhib @ conc., (uM)”
# [2] = Homo sapiens, TNF production in human U937 cells stimulated with LPS
# [3] = Homo sapiens, U-937, TNF production in human U937 cells stimulated with LPS
# [4] = TNF production in human U937 cells stimulated with LPS
# [5] = Homo sapiens, U-937, TNF production, human U937 cells stimulated with LPS
# T1 sequence (Q16539 whole entry): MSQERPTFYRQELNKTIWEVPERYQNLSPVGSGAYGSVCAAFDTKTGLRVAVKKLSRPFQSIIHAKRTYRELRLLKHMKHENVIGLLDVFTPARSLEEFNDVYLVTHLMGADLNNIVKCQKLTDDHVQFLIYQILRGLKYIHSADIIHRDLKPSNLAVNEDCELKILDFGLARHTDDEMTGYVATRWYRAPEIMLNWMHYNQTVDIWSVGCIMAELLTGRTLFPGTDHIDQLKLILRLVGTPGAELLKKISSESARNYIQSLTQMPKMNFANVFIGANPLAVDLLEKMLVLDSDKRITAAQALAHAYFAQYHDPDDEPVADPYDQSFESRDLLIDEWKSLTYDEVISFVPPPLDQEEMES
SMILES,IC50 (human p38 kinase alpha),further results
CC(C)c1cc(C(C)C)c(C(=O)NC(C)c2[nH]nc(-c3ccc(F)cc3)c2-c2ccncc2)c(C(C)C)c1 (stereo not drawn) [Example B-0497],0.44 µM,"inhibition at 1 µM [1, 2]: 31%"
CC(=O)OC(C)(C)C(=O)NC(C)c1[nH]nc(-c2ccc(F)cc2)c1-c1ccncc1 (stereo not drawn) [Example B-0535],0.44 µM,"IC50 [1, 3]: 0.87 µM"
Cc1ccc(S(=O)(=O)NC(Cc2ccccc2)C(=O)NC(C)c2[nH]nc(-c3ccc(F)cc3)c2-c2ccncc2)cc1 (stereo not drawn) [Example B-0560],2.57 µM,"inhibition at 1 µM [1, 2]: 31%"
CC(NS(=O)(=O)C=Cc1ccccc1)c1[nH]nc(-c2ccc(F)cc2)c1-c1ccncc1 (stereo not drawn) [Example B-0565],0.23 µM,"IC50 [1, 3]: 0.59 µM"
CC(NC(=O)N1CCCC1)c1[nH]nc(-c2ccc(F)cc2)c1-c1ccncc1 (stereo not drawn) [Example B-0581],0.26 µM,"IC50 [1, 3]: 2.17 µM"
COc1ccc(S(=O)(=O)NC(Cc2ccccc2)c2[nH]nc(-c3ccc(F)cc3)c2-c2ccncc2)cc1OC (stereo not drawn) [Example B-0722],0.07 µM,"IC50 [1, 3]: > 1 µM"
CN(C(=O)NC(Cc1ccccc1)c1[nH]nc(-c2ccc(F)cc2)c1-c1ccncc1)c1ccccc1 (stereo not drawn) [Example B-0731],0.87 µM,"IC50 [1, 3]: > 1 µM"
O=S(=O)(NC(Cc1ccccc1)c1[nH]nc(-c2ccc(F)cc2)c1-c1ccncc1)c1cccs1 (stereo not drawn) [Example B-0765],0.3 µM,"inhibition at 1 µM [1, 2]: 29%"
CN(C(=O)NC(Cc1ccccc1)c1[nH]nc(-c2ccc(F)cc2)c1-c1ccncc1)c1ccccc1 (stereo not drawn) [Example B-0776],0.9 µM,"IC50 [1, 4]: > 1 µM"
O=C(NC(Cc1ccccc1)c1[nH]nc(-c2ccc(F)cc2)c1-c1ccncc1)C1CCCN1 (stereo not drawn) [Example B-0794],2.9 µM,"U937 Cell % inhib @ conc. (uM) [1, 4]: 2.0% @"
O=C(NC(Cc1ccccc1)c1[nH]nc(-c2ccc(F)cc2)c1-c1ccncc1)C1CCCN1 (stereo not drawn) [Example B-0795],1.9 µM,"U937 Cell % inhib @ conc. (uM) [1, 4]: 11.0% @"
O=C(NC(Cc1ccccc1)c1[nH]nc(-c2ccc(F)cc2)c1-c1ccncc1)c1ccc(F)cc1 (stereo not drawn) [Example B-0800],1.01 µM,"IC50 [1, 5]: > 1 µM"
C=CCOC(=O)NC(Cc1ccccc1)c1[nH]nc(-c2ccc(F)cc2)c1-c1ccncc1 (stereo not drawn) [Example B-0801],0.67 µM,"IC50 [1, 5]: > 1 µM"
O=C(NC(Cc1ccccc1)c1[nH]nc(-c2ccc(F)cc2)c1-c1ccncc1)C1CC1 (stereo not drawn) [Example B-0805],0.71 µM,"IC50 [1, 5]: > 1 µM"
O=C(NC(Cc1ccccc1)c1[nH]nc(-c2ccc(F)cc2)c1-c1ccncc1)c1ccno1 (stereo not drawn) [Example B-0808],3.09 µM,"IC50 [1, 5]: > 1 µM"
CC(=O)OC(C)C(=O)NC(Cc1ccccc1)c1[nH]nc(-c2ccc(F)cc2)c1-c1ccncc1 (stereo not drawn) [Example B-0809],1.22 µM,"U937 Cell % inhib @ conc. (uM) ([1]; TNF production, U937 cells stimulated with LPS): 7.0% @"
COc1ccccc1C(=O)NC(Cc1ccccc1)c1[nH]nc(-c2ccc(F)cc2)c1-c1ccncc1 (stereo not drawn) [Example B-0811],2.79 µM,"inhibition at 1 µM ([1]; Homo sapiens, TNF production, U937 cells stimulated with LPS): 2%"
O=C(NC(Cc1ccccc1)c1[nH]nc(-c2ccc(F)cc2)c1-c1ccncc1)c1ccccc1C(F)(F)F (stereo not drawn) [Example B-0812],2.12 µM,"IC50 [1, 5]: > 1 µM"
O=C(NC(Cc1ccccc1)c1[nH]nc(-c2ccc(F)cc2)c1-c1ccncc1)c1ccc(F)c(F)c1F (stereo not drawn) [Example B-0813],3.02 µM,"IC50 [1, 5]: > 1 µM"
COc1ccc(CC(=O)NC(Cc2ccccc2)c2[nH]nc(-c3ccc(F)cc3)c2-c2ccncc2)cc1OC (stereo not drawn) [Example B-0815],2.11 µM,"IC50 [1, 5]: > 1 µM"

# Second part, led by results:
IC50 (human p38 kinase alpha),SMILES,further results
2.84 µM,CC(NC(=O)c1cccc(Br)c1)c1[nH]nc(-c2ccc(F)cc2)c1-c1ccncc1 (stereo not drawn) [Example B-0539],"inhibition at 1 µM [1, 2]: 21%"
3.24 µM,CC(NC(=O)c1ccno1)c1[nH]nc(-c2ccc(F)cc2)c1-c1ccncc1 (stereo not drawn) [Example B-0541],"inhibition at 1 µM [1, 2]: 28%"
1.04 µM,CC(NC(=O)c1ccc(F)c(F)c1F)c1[nH]nc(-c2ccc(F)cc2)c1-c1ccncc1 (stereo not drawn) [Example B-0546],"inhibition at 1 µM [1, 2]: 18%"
1.24 µM,CC(C)=CC(=O)NC(C)c1[nH]nc(-c2ccc(F)cc2)c1-c1ccncc1 (stereo not drawn) [Example B-0547],"inhibition at 1 µM [1, 2]: 21%"
1.77 µM,COc1ccc(CC(=O)NC(C)c2[nH]nc(-c3ccc(F)cc3)c2-c2ccncc2)cc1OC (stereo not drawn) [Example B-0548],"inhibition at 1 µM [1, 2]: 28%"
2.22 µM,COc1ccc(CC(=O)NC(C)c2[nH]nc(-c3ccc(F)cc3)c2-c2ccncc2)cc1 (stereo not drawn) [Example B-0549],"inhibition at 1 µM [1, 2]: 22%"
2.41 µM,COc1cccc(CC(=O)NC(C)c2[nH]nc(-c3ccc(F)cc3)c2-c2ccncc2)c1 (stereo not drawn) [Example B-0550],"inhibition at 1 µM [1, 2]: 14%"
0.36 µM,CC(NS(C)(=O)=O)c1[nH]nc(-c2ccc(F)cc2)c1-c1ccncc1 (stereo not drawn) [Example B-0573],"IC50 [1, 3]: 1.7 µM"
2.23 µM,CC(NC(=O)NCc1ccccc1)c1[nH]nc(-c2ccc(F)cc2)c1-c1ccncc1 (stereo not drawn) [Example B-0580],"IC50 [1, 4]: 0.84 µM"
1.57 µM,CCCNC(=O)NC(C)c1[nH]nc(-c2ccc(F)cc2)c1-c1ccncc1 (stereo not drawn) [Example B-0590],"IC50 [1, 3]: 38 µM"
3.59 µM,CC(NC(=O)NC(C)c1[nH]nc(-c2ccc(F)cc2)c1-c1ccncc1)c1ccccc1 (stereo not drawn) [Example B-0591],"U937 Cell % inhib @ conc. (uM) [1, 4]: 29.0% @"
2.42 µM,CC(NC(=O)Nc1cccc(F)c1)c1[nH]nc(-c2ccc(F)cc2)c1-c1ccncc1 (stereo not drawn) [Example B-0595],"U937 Cell % inhib @ conc. (uM) [1, 4]: 22.0% @"
4.16 µM,COc1ccc(NC(=O)NC(C)c2[nH]nc(-c3ccc(F)cc3)c2-c2ccncc2)c(OC)c1 (stereo not drawn) [Example B-0599],"U937 Cell % inhib @ conc. (uM) [1, 4]: 21.0% @"
5.42 µM,CC(NC(=O)c1cc(Cl)cc(Cl)c1)c1[nH]nc(-c2ccc(F)cc2)c1-c1ccncc1 (stereo not drawn) [Example B-0675],"U937 Cell % inhib @ conc. (uM) [1, 4]: 3.0% @"
2.09 µM,CC(NC(=O)c1cccc(C#N)c1)c1[nH]nc(-c2ccc(F)cc2)c1-c1ccncc1 (stereo not drawn) [Example B-0676],"U937 Cell % inhib @ conc. (uM) [1, 4]: 22.0% @"
10.1 µM,CC(NC(=O)c1cccc(C(F)(F)F)c1F)c1[nH]nc(-c2ccc(F)cc2)c1-c1ccncc1 (stereo not drawn) [Example B-0687],"U937 Cell % inhib @ conc. (uM) [1, 4]: 15.0% @"
0.38 µM,Cc1cccc(C(=O)NC(C)c2[nH]nc(-c3ccc(F)cc3)c2-c2ccncc2)c1 (stereo not drawn) [Example B-0692],"U937 Cell % inhib @ conc. (uM) [1, 4]: 29.0% @"
0.62 µM,CC(NC(=O)c1cccc(F)c1)c1[nH]nc(-c2ccc(F)cc2)c1-c1ccncc1 (stereo not drawn) [Example B-0694],"U937 Cell % inhib @ conc. (uM) [1, 4]: 21.0% @"
0.34 µM,CC(NC(=O)c1ccccc1F)c1[nH]nc(-c2ccc(F)cc2)c1-c1ccncc1 (stereo not drawn) [Example B-0699],"U937 Cell % inhib @ conc. (uM) [1, 4]: 31.0% @"
2.19 µM,CC(NC(=O)c1ccc(C(F)(F)F)cc1)c1[nH]nc(-c2ccc(F)cc2)c1-c1ccncc1 (stereo not drawn) [Example B-0704],"U937 Cell % inhib @ conc. (uM) [1, 4]: 29.0% @"
0.44 µM,CC(NC(=O)c1cccs1)c1[nH]nc(-c2ccc(F)cc2)c1-c1ccncc1 (stereo not drawn) [Example B-0705],"U937 Cell % inhib @ conc. (uM) [1, 4]: 21.0% @"
0.25 µM,CNC(=O)NC(Cc1ccccc1)c1[nH]nc(-c2ccc(F)cc2)c1-c1ccncc1 (stereo not drawn) [Example B-0730],"inhibition at 1 µM [1, 2]: 11%"
0.6 µM,CNC(=O)NC(Cc1ccccc1)c1[nH]nc(-c2ccc(F)cc2)c1-c1ccncc1 (stereo not drawn) [Example B-0775],"IC50 [1, 3]: > 1 µM"
3.28 µM,O=C(NC(Cc1ccccc1)c1[nH]nc(-c2ccc(F)cc2)c1-c1ccncc1)c1cccc(Br)c1 (stereo not drawn) [Example B-0806],"IC50 [1, 5]: > 1 µM"
1.11 µM,COCC(=O)NC(Cc1ccccc1)c1[nH]nc(-c2ccc(F)cc2)c1-c1ccncc1 (stereo not drawn) [Example B-0810],"IC50 [1, 5]: > 1 µM"
